In patent US20040106626A1, “6-Membered unsaturated heterocyclic compounds useful for selective inhibition of the coagulation cascade” (Pharmacia Corporation, priority 2001, published 2004):
Values joined by “and” are separate entries in the source; they are usually repeats but may differ in a detail not shown here. Equal entries are not always repeated. Each block holds one molecule with its values, some of them ahead of it.

Assays:
bleeding time = experiment: Bleeding time in deep vein thrombosis model; format: in vivo, Macaca fascicularis; settings: non-human primate, n=4
Method: To measure bleeding time, a blood pressure cuff is placed on the upper arm and inflated to 40 mm Hg. Two uniform cuts are made in the volar surface of the forearm, the blood from the cuts is collected onto a gauze pad every 30 sec. The time from when the cuts are made until the bleeding stops is considered the bleeding time. All gauze used to collect blood is placed in Drabkin's solution and the amount of blood lost from the bleeding time site is calculated based on the amount of hemoglobin measured in the Drabkin's solution.

[1] = system: thrombus formation in vena cava; experiment: Deep vein thrombosis model, thrombus accumulation on threads in vena cava; format: in vivo, Macaca fascicularis; settings: non-human primate, n=4
Text: This model measures the accumulation of thrombus on a set of four threads (4-0 surgical silk) that are introduced into the vena cava of a non-human primate. The device used to introduce the threads consists of a copper wire (12 cm) contained in a sheath of polyethylene tubing (9 cm). Four 4-0 surgical silk threads (3 cm) are tied to the end of the wire and retracted into the tubing. When the device is inserted into the iliac vein, the wire is advanced introducing the threads into the vena cava between the bifurcation and the left renal vein.
(§1) Non-human primates (Macaca fascicularis) are lightly anesthetized with ketamine to facilitate placement of an endotracheal tube and a femoral venous catheter. Animals are put into and maintained in a deep plane of anesthesia using pentobarbital via the femoral vein cannula. A jugular vein is cannulated for infusion of drug and a carotid artery is cannulated for blood sampling and for monitoring hemodynamic parameters.
The abdominal cavity is opened and an ultrasonic flow probe placed on the left iliac vein. The right iliac vein (RIV) is dissected free of surrounding tissue for a length of approximately 4 cm. The RIV is ligated approximately 4 cm distal to the bifurcation of the abdominal vena cava and a second ligature is placed, loosely, approximately 2 cm distal to the bifurcation. An incision is made in the RIV between the two ligatures, the device described above introduced into the iliac vein and the threads advanced into the vena cava. Every study consists of three thrombus measurements:
Control—Saline infusion. Threads are introduced and left in for 30 min, removed and thrombus weighed.
Treatment 1—Aspirin administered as a bolus or compound as an infusion. For aspirin treatment, aspirin is administered as a bolus and a 30 min equilibration period is allowed to assure the platelets are inhibited. For compound treatment, infusion is started and allowed to run for 30 min to reach steady-state blood levels of compound. Threads are introduced and left in for 30 min, removed and thrombus weighed;
Treatment 2—Compound administered as an infusion. Compound infusion is started and allowed to run for 30 min to reach steady-state blood levels of compound. Threads are introduced and left in for 30 min, removed and thrombus weighed.
During the 30 min equilibration/infusion periods of Treatment 1 and Treatment 2, a piece of tubing containing a copper wire, but no threads, is introduced into the vein to maintain the integrity of the vessel. After the threads have been in the vessel for 30 min, the entire device is removed from the vessel and the threads are cut from the device and weighed. The weight of the threads prior to insertion in the vessel is subtracted to get the net thrombus weight

prothrombin time = experiment: Prothrombin time in deep vein thrombosis model; format: in vivo, Macaca fascicularis; settings: non-human primate, n=4
Method: The prothrombin time (PT) assay is a clotting assay that is used to determine deficiencies of clotting factor activity in the extrinsic pathway. The assay measures time to clotting after the addition of thromboplastin (human tissue factor). Normal human pooled plasma is incubated with 100 uM compound or saline in a coagulation machine. Thromboplastin is added and time to clotting is measured. Compounds with greater than 3×normal PT of 11.0 seconds are further analyzed by concentration response to determine at what concentration the prothrombin time is prolonged by 2×normal.
as §1
The table below depicts the effects of Aspirin coadministered with a compound of the present invention (compounds 54 and 55 are salts of the compound tested) on thrombus formation, prothrombin time and bleeding time in a non-human primate model of deep vein thrombosis.

[2] = system: Normal human pooled plasma; experiment: Prothrombin time (PT) clotting assay; format: biochemical; settings: concentration at which prothrombin time is prolonged by 2x normal, reported as less than or greater than 50 uM
Outline: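 Normal human pooled plasma incubated with 100 uM compound or saline, then thromboplastin (human tissue factor) added and clotting time recorded in a coagulation machine. Compounds exceeding 3× normal PT (11.0 s) are titrated to find the concentration doubling PT.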

Human thrombin = target: T1, Human thrombin (Homo sapiens, UniProt P00734); experiment: Thrombin assay (chromogenic substrate); format: biochemical; settings: reported only as less than or greater than 30 uM; read-out: Thrombin (II) IC50
T1 construct: converts prothrombin (II) to thrombin (IIa); purchased Calbiochem, La Jolla, Calif
Outline: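 Percent inhibition derived by comparing OD405 nm of compound-treated and control samples. Thrombin cleavage of a p-nitroanilide chromogenic substrate provides the signal.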

Human factor Xa = target: T2, Human factor Xa (Homo sapiens, UniProt P00742); experiment: Xa assay (chromogenic substrate S-2765); format: biochemical; settings: reported only as less than or greater than 30 uM; read-out: Factor Xa (II) IC50
T2 construct: purchased Enzyme Research Laboratories, South Bend Ind
T2 sequence (P00742 235-488 limits assumed): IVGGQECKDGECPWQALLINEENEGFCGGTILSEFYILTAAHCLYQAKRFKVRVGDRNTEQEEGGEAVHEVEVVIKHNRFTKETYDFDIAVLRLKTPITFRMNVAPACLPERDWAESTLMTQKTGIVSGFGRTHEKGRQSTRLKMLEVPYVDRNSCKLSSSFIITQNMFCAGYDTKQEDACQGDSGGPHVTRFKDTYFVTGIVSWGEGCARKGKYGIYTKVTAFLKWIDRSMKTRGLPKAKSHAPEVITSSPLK
T2 sequence (P00742 41-179 limits assumed): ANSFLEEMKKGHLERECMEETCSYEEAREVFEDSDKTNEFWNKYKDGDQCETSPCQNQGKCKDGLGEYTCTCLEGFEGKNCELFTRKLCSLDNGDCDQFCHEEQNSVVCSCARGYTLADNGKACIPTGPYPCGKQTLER
Outline: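 Chromogenic readout: S-2765 hydrolysis (0.15 mM) by 0.3 nM human FXa was monitored at 405 nm after 60 min at room temperature, with a time-zero background read. Buffer: 50 mM Tris-HCl, pH 8.0, 100 mM NaCl, 0.1% BSA. Inhibition is relative to buffer-only controls.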

[3] = target: T3, recombinant soluble tissue factor and recombinant human factor VIIa (TF-VIIa) (Homo sapiens, UniProt P08709); experiment: TF-VIIa assay (chromogenic substrate hydrolysis); format: biochemical; settings: reported only as less than or greater than 0.1 uM
T3 construct: conversion of coagulation factor VII to VIIa by factor Xa; purchased American Diagnostica, Greenwich CT; host or cells: soluble TF made in house in E. coli
T3 sequence (P08709 213-466 limits assumed): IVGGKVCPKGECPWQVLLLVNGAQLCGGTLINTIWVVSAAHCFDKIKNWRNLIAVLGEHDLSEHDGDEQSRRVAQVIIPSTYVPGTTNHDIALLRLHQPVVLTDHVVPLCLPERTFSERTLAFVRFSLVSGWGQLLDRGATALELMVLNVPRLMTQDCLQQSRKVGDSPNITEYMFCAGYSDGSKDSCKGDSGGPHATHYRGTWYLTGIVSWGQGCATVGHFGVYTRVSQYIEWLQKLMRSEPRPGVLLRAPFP
T3 sequence (P08709 61-212 limits assumed): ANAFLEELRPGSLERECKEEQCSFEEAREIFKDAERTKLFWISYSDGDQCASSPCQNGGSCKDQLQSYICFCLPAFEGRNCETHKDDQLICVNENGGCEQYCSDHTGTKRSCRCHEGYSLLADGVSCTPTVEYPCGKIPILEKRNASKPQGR
T3 sequence (P13726 33-251 partner limits assumed): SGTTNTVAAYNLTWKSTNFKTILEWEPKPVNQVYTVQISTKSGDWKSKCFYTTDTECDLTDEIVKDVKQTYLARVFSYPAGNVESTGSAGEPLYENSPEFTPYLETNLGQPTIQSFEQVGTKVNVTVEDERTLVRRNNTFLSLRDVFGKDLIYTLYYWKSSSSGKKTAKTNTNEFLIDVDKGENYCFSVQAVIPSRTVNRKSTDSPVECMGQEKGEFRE
Outline: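 Chromogenic read at OD405, compared with control for percent inhibition. Substrate N-methylsulfonyl-D-phe-gly-arg-p-nitroaniline at 0.4 mM is cleaved by recombinant human VIIa (2 nM) complexed with soluble TF (100 nM). Buffer: pH 8.0 Tris-HCl 50 mM, CaCl2 5 mM, NaCl 100 mM, BSA 0.1%.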

[4] = Aspirin bolus followed by compound infusion 50 μg/kg/min (coadministered)
[5] = Aspirin bolus followed by compound infusion 100 μg/kg/min (coadministered)
[6] = compound infusion 200 μg/kg/min, no aspirin
[7] = compound infusion 100 μg/kg/min, no aspirin

Bleeding Time (bleeding time; Aspirin bolus alone): 4.6 min and 4.3 min
SMILES: CC(=O)Oc1ccccc1C(=O)O [Aspirin, reference compound]
Net Thrombus Wt ([1]; Aspirin bolus alone): 30.9 mg and 26.7 mg
Thrombus Wt: % Δ from Control ([1]; Aspirin bolus alone): −12% and −4%
Prothrombin Time (prothrombin time; Aspirin bolus alone): 11.8 s and 11.5 s

Bleeding Time (bleeding time; [4]): 4.1 min
Bleeding Time (bleeding time; [5]): 4.7 min
Bleeding Time (bleeding time; [6]): 3.9 min
SMILES: CC(C)Nc1ncc(-c2cc(N)cc(O)c2)n(CC(=O)NCc2ccc(C(=N)N)cc2)c1=O [Compounds 54 and 55]
Net Thrombus Wt [1, 4]: 19.5 mg
Thrombus Wt: % Δ from Control [1, 4]: −34%
Net Thrombus Wt [1, 5]: 3.6 mg
Thrombus Wt: % Δ from Control [1, 5]: −89%
Net Thrombus Wt [1, 7]: 15.3 mg
Thrombus Wt: % Δ from Control [1, 7]: −56%
Net Thrombus Wt [1, 6]: 5.1 mg
Thrombus Wt: % Δ from Control [1, 6]: −85%
Prothrombin Time (prothrombin time; [4]): 17.3 s
Prothrombin Time (prothrombin time; [5]): 22.4 s
Prothrombin Time (prothrombin time; [7]): 22.7 s
Prothrombin Time (prothrombin time; [6]): 46.0 s

SMILES: CC[C@@H](C)NC(=O)c1cc(N)cc(-c2cnc(NC(C)C)c(=O)n2CC(=O)NCc2ccc(C(=N)N)cc2O)c1.O=C(O)C(F)(F)F [Example 240]
PT (Prothrombin time) 2xPT [2]: <50.0 µM
IC50 (Human thrombin): > 30 µM
IC50 (Human factor Xa): > 30 µM
IC50 [3]: < 0.1 µM
